PubChem BioAssay AID2060509 (Molecular Pharmacology Branch, DTP, NCI, 2025)
Where “and” joins values, the source holds several entries; their conditions need not be identical. Equal entries are not always repeated.

Test system: 485176-168-R4-J1-PDC spheroids with HUVEC/MSC, viability
Assay: Anticancer human tumor 485176-168-R4-J1-PDC patient-derived pancreatic adenocarcinoma cell line growth inhibition [GQUAD]
Settings: for viability, T/C: stronger effect = lower value
Text: DNA G-quadruplex Stabilizer Agents in Combinations in Complex Spheroids
A high-throughput screen of multi-cell type tumor spheroids was designed to identify active combinations of DNA G-quadruplex stabilizer agents and targeted small molecules. Complex spheroids include a stromal component modeled by human endothelial cells (HUVEC) and fibroblasts modeled by human mesenchymal stem cells (MSCs). The concentration ranges selected for each drug and investigational agent were based upon clinically achievable concentrations if the clinical Cmax of the agent was known.
Compounds. The drugs and investigational agents: pidnarulex (CX-5461; NSC782164), APTO-253 (NSC789042), BRACO-19 (NSC847499), peposertib (NSC802822), ceralasertib (NSC780249), elimusertib (NSC800525), camonsertib (NSC841442), AZD-1390 (NSC803789), olaparib (NSC753686), talazoparib (NSC767125), ART-558 (NSC835418), sotorasib (NSC818433), MRTX-1133 (NSC836407), SN-38 (NSC673596), topotecan (NSC609699), etoposide (NSC141540), doxorubicin (NSC123127), gemcitabine (NSC613327), 5-fluorouracil (NSC19893), paclitaxel (NSC125973), vemurafenib (NSC761431), panobinostat (NSC761190), R-306465 (JNJ-16241199; NSC773264), adavosertib (NSC754352), TP-3654 (NSC805149), carboplatin (NSC241240), KSQ-4279 (NSC840948), and staurosporine (NSC755774) were obtained from the National Cancer Institute (NCI) Developmental Therapeutics Program Chemical Repository (34). The FDA-approved anticancer drug set is available from the NCI Developmental Therapeutics Program. […] The stock solutions were prepared in dimethyl sulfoxide (DMSO, Sigma-Aldrich, St. Louis, MO, cat. D2650) at 800-fold the tested concentration and stored at -70 degrees C prior to their use. All drugs and investigational agents were tested over a range starting from a high concentration at or near the clinical Cmax and decreasing in half-log increments. If the clinical Cmax for an agent had not been determined, the highest concentration tested was 10 microM.
2.3 Cell Culture. All cells were maintained in an incubator at 37 degrees C and 5% CO2 with 95% humidity. The PDC lines were cultured according to standard operating procedures established by the NCI PDMR. All PDCs were thawed and cultured in Matrigel-coated flasks prepared with a working solution of 1X Ham's F-12 nutrient mix, without supplementation (Invitrogen, cat. 11765054), 100 U/mL penicillin-streptomycin (Invitrogen, cat. 15140122), and 2.5% Matrigel (Corning Inc., cat. 354248) for the first three passages. The 857933-349-R-J2-PDC line was cultured in 6C/Colon 1B media, which includes advanced DMEM/F-12 (Thermo Fisher Scientific, cat. 12634028), 10 mM HEPES (Thermo Fisher Scientific, cat. 15630080), 1X GlutaMAX supplement (Thermo Fisher Scientific, cat. 35050061), 0.1 mg/mL primocin (InvivoGen, cat. ant-pm-2), 10% defined fetal bovine serum, heat inactivated (HyClone Laboratories Inc., cat. SH30070.03HI), 50% L-WRN conditioned media (ATCC, cat. CRL-3276), 1.25 mM N-Acetyl-L-cysteine (Sigma-Aldrich, cat. A9165), 10 mM nicotinamide (Sigma-Aldrich, cat. N0636), 1X B-27 supplement (Thermo Fisher Scientific, cat. 17504044), 1X N-2 supplement (Thermo Fisher Scientific, cat. 17502048), 10 microM Y-27632 dihydrochloride (Tocris Bioscience, cat. 1254), and 50 ng/mL human EGF recombinant protein (Thermo Fisher Scientific, cat. PHG0311). The 485176-168-R4-J1-PDC line was cultured in Panc media, which includes all 6C/Colon 1B media components plus 100 ng/mL human FGF-10 (Thermo Fisher Scientific, cat. 100-26), 500 nM SB-431542 (Selleckchem, cat. S1067), and gastrin (Tocris, cat. 3006).
[…]

[1] = curve of first compound, second compound 0.0316 µM
[2] = curve of first compound, second compound 0.1 µM
[3] = curve of first compound, second compound 0.316 µM
[4] = curve of first compound, second compound 1 µM
[5] = curve of first compound, second compound 3.16 µM
[6] = curve of first compound, second compound 10 µM
[7] = second compound 0.0316 µM, first compound 0.0316 µM
[8] = second compound 0.0316 µM, first compound 0.1 µM
[9] = second compound 0.0316 µM, first compound 0.316 µM
[10] = second compound 0.0316 µM, first compound 1 µM
[11] = second compound 0.0316 µM, first compound 3.16 µM
[12] = second compound 0.0316 µM, first compound 10 µM
[13] = second compound 0.1 µM, first compound 0.0316 µM
[14] = second compound 0.1 µM, first compound 0.1 µM
[15] = second compound 0.1 µM, first compound 0.316 µM
[16] = second compound 0.1 µM, first compound 1 µM
[17] = second compound 0.1 µM, first compound 3.16 µM
[18] = second compound 0.1 µM, first compound 10 µM
[19] = second compound 0.316 µM, first compound 0.0316 µM
[20] = second compound 0.316 µM, first compound 0.1 µM
[21] = second compound 0.316 µM, first compound 0.316 µM
[22] = second compound 0.316 µM, first compound 1 µM
[23] = second compound 0.316 µM, first compound 3.16 µM
[24] = second compound 0.316 µM, first compound 10 µM
[25] = second compound 1 µM, first compound 0.0316 µM
[26] = second compound 1 µM, first compound 0.1 µM
[27] = second compound 1 µM, first compound 0.316 µM
[28] = second compound 1 µM, first compound 1 µM
[29] = second compound 1 µM, first compound 3.16 µM
[30] = second compound 1 µM, first compound 10 µM
[31] = second compound 3.16 µM, first compound 0.0316 µM
[32] = second compound 3.16 µM, first compound 0.1 µM
[33] = second compound 3.16 µM, first compound 0.316 µM
[34] = second compound 3.16 µM, first compound 1 µM
[35] = second compound 3.16 µM, first compound 3.16 µM
[36] = second compound 3.16 µM, first compound 10 µM
[37] = second compound 10 µM, first compound 0.0316 µM
[38] = second compound 10 µM, first compound 0.1 µM
[39] = second compound 10 µM, first compound 0.316 µM
[40] = second compound 10 µM, first compound 1 µM
[41] = second compound 10 µM, first compound 3.16 µM
[42] = second compound 10 µM, first compound 10 µM
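Note: spheroids exposed to compounds for seven days before readout.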
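Throughout, for viability, T/C: percent viability relative to DMSO vehicle control wells as 100%.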

Question: With `CN(C)c1ccc(Nc2c3ccc(NC(=O)CCN4CCCC4)cc3nc3cc(NC(=O)CCN4CCCC4)ccc23)cc1` as the compound, how does the viability, T/C (compound 0.0316 µM) read?
Answer: 101% [middle of 12 runs]

Question: And the viability, T/C (compound 0.316 µM)?
Answer: 102% [middle of 12 runs]

Question: And the viability, T/C (compound 3.16 µM)?
Answer: 93.2% [middle of 12 runs]

Question: And the viability, T/C (compound 10 µM)?
Answer: 84.2% [middle of 12 runs]

Question: What about the IC50 (compound alone, run of 03/26/2024) of the same compound?
Answer: > 10 µM

Question: With `C=CC(=O)N1CCN(c2nc(=O)n(-c3c(C)ccnc3C(C)C)c3nc(-c4c(O)cccc4F)c(F)cc23)C(C)C1` (stereo unspecified) as the compound, how does the viability, T/C (compound 0.0316 µM) read?
Answer: 94.5% and 108% and 99.3%

Question: And the viability, T/C (compound 0.1 µM)?
Answer: 80.1% and 83.2% and 93.6%

Question: And the viability, T/C (compound 0.316 µM)?
Answer: 115% and 110% and 111%

Question: What about the viability, T/C (compound 1 µM) of the same compound?
Answer: 91.1% and 122% and 103%

Question: What about the viability, T/C (compound 3.16 µM) of the same compound?
Answer: 113% and 109% and 111%

Question: What about the viability, T/C (compound 10 µM) of the same compound?
Answer: 96.8% and 114% and 107%

Question: What about the IC50 (curve of compound) of the same compound?
Answer: > 10 µM

Question: What does the source list for `Cc1cccc(N(C)C(=O)C2C(O)CCN2c2nc(C)cc(C(F)(F)F)c2C#N)c1` (stereo unspecified) + Cc1cnc(CNC(=O)c2c(=O)c3ccc(N4CCCN(C)CC4)nc3n3c2sc2ccccc23)cn1?
Answer: IC50 [1]: > 10 µM; IC50 [2]: > 10 µM; IC50 [3]: > 10 µM; IC50 [4]: > 10 µM; IC50 [5]: < 0.0316 µM; IC50 [6]: < 0.0316 µM; viability, T/C [7]: 91.9%; viability, T/C [8]: 100%; viability, T/C [9]: 89%; viability, T/C [10]: 97.2%; viability, T/C [11]: 96%; viability, T/C [12]: 98.3%; viability, T/C [13]: 64.2%; viability, T/C [14]: 78%; viability, T/C [15]: 78.6%; viability, T/C [16]: 67.9%; viability, T/C [17]: 65.8%; viability, T/C [18]: 67.8%; viability, T/C [19]: 66.8%; viability, T/C [20]: 64%; viability, T/C [21]: 56.3%; viability, T/C [22]: 60.9%; viability, T/C [23]: 66.6%; viability, T/C [24]: 60.5%; viability, T/C [25]: 52%; viability, T/C [26]: 45.5%; viability, T/C [27]: 53.9%; viability, T/C [28]: 45.9%; viability, T/C [29]: 57.1%; viability, T/C [30]: 47.5%; viability, T/C [31]: 44%; viability, T/C [32]: 47.9%; viability, T/C [33]: 39.5%; viability, T/C [34]: 43.3%; viability, T/C [35]: 47.8%; viability, T/C [36]: 40.7%; viability, T/C [37]: 42.7%; viability, T/C [38]: 39%; viability, T/C [39]: 43.4%; viability, T/C [40]: 38.1%; viability, T/C [41]: 45.7%; viability, T/C [42]: 40.6%

Question: With `Cc1cccc(N(C)C(=O)C2C(O)CCN2c2nc(C)cc(C(F)(F)F)c2C#N)c1` (stereo unspecified) + CN(C)c1ccc(Nc2c3ccc(NC(=O)CCN4CCCC4)cc3nc3cc(NC(=O)CCN4CCCC4)ccc23)cc1 as the compound, how does the IC50 [1] read?
Answer: > 10 µM

Question: And the IC50 [2]?
Answer: > 10 µM

Question: What about the IC50 [3] of the same compound?
Answer: > 10 µM

Question: And the IC50 [4]?
Answer: > 10 µM

Question: What about the IC50 [5] of the same compound?
Answer: > 10 µM

Question: What about the IC50 [6] of the same compound?
Answer: > 10 µM

Question: And the viability, T/C [7]?
Answer: 103%

Question: And the viability, T/C [8]?
Answer: 93.5%

Question: And the viability, T/C [9]?
Answer: 86.2%

Question: And the viability, T/C [10]?
Answer: 105%

Question: And the viability, T/C [11]?
Answer: 111%

Question: What about the viability, T/C [12] of the same compound?
Answer: 102%

Question: And the viability, T/C [13]?
Answer: 91.9%

Question: And the viability, T/C [14]?
Answer: 102%

Question: What about the viability, T/C [15] of the same compound?
Answer: 98%

Question: And the viability, T/C [16]?
Answer: 84.2%

Question: And the viability, T/C [17]?
Answer: 94.3%

Question: What about the viability, T/C [18] of the same compound?
Answer: 98.9%

Question: And the viability, T/C [19]?
Answer: 106%

Question: And the viability, T/C [20]?
Answer: 89.1%

Question: And the viability, T/C [21]?
Answer: 109%

Question: And the viability, T/C [22]?
Answer: 109%

Question: What about the viability, T/C [23] of the same compound?
Answer: 118%

Question: What about the viability, T/C [24] of the same compound?
Answer: 94.3%

Question: And the viability, T/C [25]?
Answer: 93.5%

Question: And the viability, T/C [26]?
Answer: 93.6%

Question: What about the viability, T/C [27] of the same compound?
Answer: 104%

Question: What about the viability, T/C [28] of the same compound?
Answer: 112%

Question: And the viability, T/C [29]?
Answer: 101%

Question: And the viability, T/C [30]?
Answer: 85.6%

Question: And the viability, T/C [31]?
Answer: 110%

Question: What about the viability, T/C [32] of the same compound?
Answer: 95.4%

Question: What about the viability, T/C [33] of the same compound?
Answer: 80.6%

Question: What about the viability, T/C [34] of the same compound?
Answer: 94%

Question: And the viability, T/C [35]?
Answer: 111%

Question: What about the viability, T/C [36] of the same compound?
Answer: 98.2%

Question: And the viability, T/C [37]?
Answer: 97.3%

Question: And the viability, T/C [38]?
Answer: 93%

Question: What about the viability, T/C [39] of the same compound?
Answer: 81.1%

Question: What about the viability, T/C [40] of the same compound?
Answer: 86.7%

Question: What about the viability, T/C [41] of the same compound?
Answer: 62%

Question: What about the viability, T/C [42] of the same compound?
Answer: 59.2%
